Each structure is given as a SMILES string. Activity calls are given as the source filed them.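 Rule for the calls: active = fitted curve reaches a 40% rise in fluorescent cells at or below the top valid dose; inactive = opposite-direction effect, or the rest.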

The nature of the first assay: compound fluorescence in GFP channel, mTEFS cells – imaging, mTEFS fibroblasts, cherry-pick, artefact control for X-chromosome reactivation project, dose response (AID 743396).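 Note: raw share of Hoechst-counted cells scored GFP positive without control normalization.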 The settings on record: mTEFS fibroblasts autofluorescence, GFP-channel imaging, 3 days; at 19.5 µM (top of the series).
Regarding `Cc1cc(/C=C2/C(=O)NC(=O)N(Cc3ccco3)C2=O)c(C)n1-c1ccccc1O`, the % fluorescent cells increase is 0% (inactive).
Consider `O=C(Cc1ccccn1)N1CCCCN2[C@H](C1)[C@@H](c1ccc(-c3ccccc3F)cc1)[C@@H]2CO`, for which the % fluorescent cells increase is 0.674% (inactive).
For the molecule `OCC[n+]1c2ccccc2nc2ccc(N3CCOCC3)cc21`, the % fluorescent cells increase was 0% (inactive).

The assay is the same for the next values; noted with them: mTEFS fibroblasts autofluorescence, GFP-channel imaging, 3 days; at 19.5 µM (top of the series); cells pretreated with 5-aza-dC.
Regarding `COc1cc(NS(=O)(=O)c2ccc3ccccc3c2)c2ncccc2c1`, the % fluorescent cells increase was 0% (inactive).
Still for that read-out and setting: next, `COc1ccc(Cl)cc1C(=O)Nc1ccccc1N1CCCCC1`: 2.45% (inactive); `CCC1Oc2ccc(C)cc2N(CC(=O)N2CCCC2)C1=O` (stereo unspecified): 0.001% (inactive).
Consider `Cc1ccc(C)c(OCCC(=O)Nc2cc(S(=O)(=O)N3CCCCC3)ccc2C)c1`, for which the % fluorescent cells increase is 13% (inactive).
Still for that read-out and setting: with `Nc1c(-c2ccccc2)c(CN2CCOCC2)nn1-c1ccc(C(=O)O)cc1` the figure was 0% (inactive); with `CC1=C(Cl)C2=NS(=O)(=O)CCN2C=C1Cl`, 1.51% (inactive); with `CO[C@@H]1CN(C)C(=O)c2cc(NS(C)(=O)=O)ccc2OC[C@H](C)N(C(=O)C2CCCC2)C[C@H]1C`, 0.308% (inactive).
On the same count and under the same terms, with `Cc1nn(-c2ccccc2)c(C)c1N` the figure was 0% (inactive).
`CC(=O)c1ccc(NS(=O)(=O)c2ccc(N/C=C/C(=O)c3ccc(F)cc3)cc2)cc1`: the % fluorescent cells increase is 0% (inactive).
On to `CCOC(=O)c1sc2nc(CSc3ccccc3)[nH]c(=O)c2c1C`, for which the % fluorescent cells increase is 0.048% (inactive).
Still for that read-out and setting: next, `CC(C)(C)C1CCNC(=O)CC1` (stereo unspecified): -0.007% (inactive).
Same read-out and setting: with `CN(C)CCN(Cc1ccc(Cl)cc1)c1ccccn1` the figure was -0.004% (inactive); with `O=c1[nH]cnc2c1ncn2[C@H]1CC[C@@H](CO)O1`, 0.722% (inactive).
Still for that read-out and setting: with `CN(C)CC(=O)N1CC2(C1)[C@@H](c1ccccc1)[C@H](CO)N2C(=O)C1CC1` the figure was -0.147% (inactive).
Consider `Cc1ccc(C)c(CSC2=NN3CCCC(=O)N=C3S2)c1`, for which the % fluorescent cells increase is -0.006% (inactive).
Same read-out and setting: with `CC(=O)Nc1ccc(S(=O)(=O)N(C)c2ccc(OCC(=O)NCCc3ccccc3F)cc2)cc1` the figure was 0.014% (inactive); with `Brc1ccc(-c2cn3ccccc3n2)cc1`, 0% (inactive); with `Cc1cc(=O)[nH]c(N/N=C/c2cc(C)n(CC(F)(F)F)c2C)n1`, 0% (inactive).
On the same count and under the same terms, next, `COc1ccccc1C#Cc1ccc2c(c1)O[C@H](CN(C)Cc1cncnc1)[C@@H](C)CN([C@H](C)CO)S2(=O)=O`: 0% (inactive); `COc1ccc(-c2ccc(C#N)c(SCC(=O)NCc3ccco3)n2)cc1OC`: 0% (inactive).
On the same count and under the same terms, with `Cc1nc(NC(=O)C(Cl)Cl)sc1C(=O)N(C)C` the figure was 0% (inactive).
On to `CC1CCCC(NC(=O)CSc2cccc[n+]2[O-])C1C` (stereo unspecified), for which the % fluorescent cells increase is 0.029% (inactive).
Same read-out and setting: with `Cc1ccccc1NC(=O)c1cn2c(nc3ccccc32)c(C#N)c1C` the figure was 2.44% (inactive); with `Cc1cccc2sc(N(CCCN(C)C)C(=O)CN3C(=O)c4ccccc4C3=O)nc12`, 0% (inactive).
Turning to `CCOC(=O)c1cnc(-c2ccc(C(F)(F)F)cn2)[nH]c1=O`, the % fluorescent cells increase is 11.4% (inactive).
With `C[C@@H]1CN([C@H](C)CO)C(=O)c2cc(NC(=O)Nc3ccc4c(c3)OCO4)ccc2O[C@@H](C)CCCCO[C@@H]1CN(C)C(=O)Cc1ccccc1`, the % fluorescent cells increase was 0.027% (inactive).
The same measure, in the same setting: next, `CCCCCCCCN1C(=O)[C@H](CC(=O)N2CCSCC2)C[C@@]2(C(=O)OCC)CCCC=C12`: 0.056% (inactive); `CC(C)OC(=O)CC(=O)CSc1nc(-c2ccc(F)cc2)cc(-c2ccccc2)c1C#N`: 0.594% (inactive); `COc1ccc(OC)c(NC(=O)Nc2ccc3[nH]ccc3c2)c1`: 0% (inactive).
Turning to `Cc1ccc(NC(=O)c2ncn(CCCNCCCN(C)C)n2)cc1C`, the % fluorescent cells increase was 0% (inactive).
Same read-out and setting: next, `CSc1ccc(CNCC2CCCO2)cc1` (stereo unspecified): 0.293% (inactive); `NNC(=O)c1sc(-c2ccc(Cl)cc2)cc1N`: 0.125% (inactive); `COc1cccc(-c2ccc(C3[C@@H]4CN(C(=O)C5CCCCC5)C[C@H]3N4)cc2)c1` (stereo partly specified): 0% (inactive).
On to `COc1ccc(NS(=O)(=O)c2ccc(NC(C)=O)cc2)nn1`, for which the % fluorescent cells increase was -0.003% (inactive).
Turning to `O=[N+]([O-])/C=C/c1ccc2c(ccn2Cc2ccccc2)c1`, the % fluorescent cells increase was 0% (inactive).
With `C[C@@H]1COc2cccc(NCCO)c2S(=O)(=O)N1`, the % fluorescent cells increase is 0% (inactive).
`CC(O)(c1ccccc1)c1nc(-c2ccncc2)cs1` (stereo unspecified): the % fluorescent cells increase was 0.38% (inactive).
Still for that read-out and setting: with `S=C(SSC(=S)N1CCOCC1)N1CCOCC1` the figure was 0% (inactive).
On the same count and under the same terms, next, `CC(C)(C)[S@@](=O)N1Cc2cc(C(=O)N3CCCCC3)nc(-c3cccc(-c4cccc(C#N)c4)c3)c2[C@H]1CCO`: 0.101% (inactive); `C[C@H](CO)N1C[C@H](C)[C@H](CN(C)S(=O)(=O)c2ccccc2)Oc2ccc(NS(=O)(=O)c3ccc(Cl)cc3)cc2C1=O`: 0.016% (inactive).
`C[C@@H]1CCCCO[C@H](CN(C)Cc2ccc3c(c2)OCO3)[C@@H](C)CN([C@H](C)CO)C(=O)c2cc(NS(=O)(=O)c3ccc(F)cc3)ccc2O1`: the % fluorescent cells increase was 0.175% (inactive).
The same measure, in the same setting: next, `COc1cc(/C=C/c2ccc3cccc(O)c3n2)cc(OC)c1OC`: 0% (inactive).
With `CCOC(=O)C1=C(C)NC(=S)NC1/C=C/c1ccccc1` (stereo unspecified), the % fluorescent cells increase is -0.004% (inactive).
Same read-out and setting: with `CCOC(=O)C1CCN(C(=O)c2ccc(NS(=O)(=O)c3ccc(F)cc3C)cc2)CC1` the figure was 0% (inactive); with `COc1ccc(N2C(=O)C3CCCN3C2c2cccc(OC)c2)cc1` (stereo unspecified), 0.021% (inactive).
Still for that read-out and setting: next, `CCC(=O)N1CC(=O)N2[C@@H](CO)[C@@H](c3ccc(-c4ccccc4F)cc3)[C@@H]2C1`: 0% (inactive); `CN(C)c1ccc(NC2=C(Cl)C(=O)c3ccccc3C2=O)cc1`: -0.006% (inactive).
The same measure, in the same setting: with `O=C(N/N=C/c1ccc(O)c2ncccc12)c1cccc(Br)c1` the figure was -0.003% (inactive); with `Cc1ccsc1C1Nc2ccccc2-c2nc3ccccc3n21` (stereo unspecified), 0.699% (inactive); with `CC(C)c1ccc(N2C(=O)/C(=C/N(C)C)SC2=S)cc1`, 0.026% (inactive).
In the case of `COc1ccc(/C=C2\CCc3ccccc3C2=O)cc1CN1CCOCC1`, the % fluorescent cells increase was -0.007% (inactive).
On the same count and under the same terms, next, `O=C1N(c2ccccc2)C[C@@H]2C[C@@H](c3cc4ccccc4o3)N3CCC[C@@]123`: -0.007% (inactive).

Still in this assay, the particulars now being: mTEFS fibroblasts autofluorescence, GFP-channel imaging, 3 days; at 21 µM (top of the series); cells pretreated with 5-aza-dC.
On to `CO[C@H](CN(C)C(=O)Nc1ccc(C(F)(F)F)cc1)[C@@H](C)CN(Cc1ccccc1Cl)[C@@H](C)CO`, for which the % fluorescent cells increase was 0% (inactive).

Source of the values: PubChem BioAssay AID743396 (Broad Institute, 2014).
